The test system of this assay is Blt-M1 (P450Blt A231V-H234L). Nature of the assay: Deuterium loss on cyclization by Blt-M1. The note with it: deuterium at C2 of His-3, HRMS. It counts as biochemical, Micromonospora sp. MW-13. How it is done: Finally, we sought to clarify the nature of the cross-link within 5 formed by Blt-M1 as no equivalent cross-linked tripeptide natural product has been identified. Scaled enzymatic cyclization of Nle-2 (N-terminal Met residue was replaced with norleucine (Nle) to avoid sulfoxidation due to the release of reactive oxygen intermediates during catalysis) and purification of Nle-5 were then performed. […] We turned to the use of peptide deuteration to resolve this cross-link, which based on WT biarylitide reactivity could be either C–C or C–N. This required synthesis and turnover of a deuterated version of Nle-2 with deuterium at C2 of the His-3 residue (Nle-2^3d).[17] […]
The UV-visible spectra of the P450 enzymes were obtained using a Jasco V-750 spectrophotometer as has been previously reported.1 The spectra were measured until it reached a stable peak. CO difference spectra were obtained using a Jasco V-750 spectrophotometer at 30 °C as has been previously described.1 The UV-vis spectra were measured between 390–600 nm every 5 mins until the spectra was stable.1, 4 Substrate interaction with the P450s was measured using UV-visible absorbance spectroscopy carried out on a Jasco V-750 spectrophotometer according to previously reported protocol.1 Amplitudes of the different spectra were extrapolated (ΔA = Amax - Amin) and plotted against the substrate concentration. […]

The results in this text go back to PMC10929621, “An Engineered Biarylitide Cross-Linking P450 from RiPP Biosynthesis Generates Alternative Cyclic Peptides” (Organic Letters, 2024).

In the case of “NleRHLY (sidechain bridge or staple) [Nle-5, cross-linked peptide from enzymatic cyclization of Nle-2 by Blt-M1]”, the “loss of deuterium upon cyclization” value is listed as “loss of deuterium”.
